Measurements as given in patent US9533128B2, “Devices for maintaining patency of surgically created channels in tissue” (Broncus Medical Inc., priority 2003, dated 2017).

Conditions: polymer system of polydimethylsiloxane vinyl terminated at various viscosity and platinum-mono, di, tri and/or tetramethyldisiloxane complex
Source text: These components may be combined in different ratios to make the polymer. […] The amount of vinyl siloxane cross-linker may determine the rate of the drug release and diffusivity of the polymer to the drug.

CC(=O)O[C@H]1C(=O)[C@@]2(C)[C@H]([C@H](OC(=O)c3ccccc3)[C@]3(O)C[C@H](OC(=O)[C@H](O)[C@@H](NC(=O)c4ccccc4)c4ccccc4)C(C)=C1C3(C)C)[C@]1(OC(C)=O)CO[C@@H]1C[C@@H]2O [paclitaxel]
release profile: acceptable
